In US4242354A, “2-(2-Thenolythio)-propionylglycine: method for its preparation and pharmaceutical formulations containing said compound” (Mediolanum Farmaceutici S.r.L., priority 1978, dated 1980):
Like-named read-outs stand apart in the source and are kept apart here.

Columns and labels:
[1] = in vivo; conditions: mouse, iv
[2] = system: carbon tetrachloride poisoning; assay: Protective activity in the carbon tetrachloride poisoning; format: in vivo, male rats (Sprague-Dawley); conditions: CCl4 0.5 ml/mg sc, 7 days; drugs intramuscularly, (I) 200 and 300 mg/kg, (II) 300 mg/kg
Procedure: Fifty male rats (Sprague-Dawley, 180-200 grams bodyweight) were used for the investigation, subdivided into 5 groups: one group was given no treatment while the remaining 4 groups were poisoned for 7 consecutive days with CCl4 at the dosage of […] given subcutaneously.

[3] = Rogers' nonisothermic method: energies of activation, specific velocities, validity periods; format: physicochemical
Procedure: (§1) The stability tests were carried out according to the Rogers' nonisothermic method suitably integrated by the evaluation of physical data, melting point, weight variation, and spectrophotometric assay. For each single compound, the tests were performed on a series of samples, with the weight of 100 milligrams, added for the wet tests with 1 ml of distilled water. […] The sample were kept in a thermostat at increasing temperatures, i.e. from 25° to 80° C. […] The temperature, programmed according to the Rogers' formula, resulted to be 40° C. at the end of the first hour, 50° C. at the end of the second hour, 57° C. at the end of the third hour, 63° C. at the end of the fourth hour, 69° C. at the end of the fifth hour, 73° C. at the end of the sixth hour, 77° C. at the end of the seventh hour and, as already specified, 80° C. at the end of the eighth hour.
The data shown in Table 7 were worked out according to the Rogers' method, drawing up the values of the energies of activation of the decomposition reactions under dry and wet conditions, the specific rate constants as well as the validity period.

[4] = in vivo; conditions: rat, in vivo
Procedure: (§2) Hundred-and-forty (140) albino rats, Sprague-Dawley strain, bodyweight 120-135 grams, subdivided into groups each consisting of 5 animals, were used for the investigation. […] For each single compound the LD 50 was assessed according to Litchfield and Wilcoxon on the basis of the mortality rate encountered in the 7 days following the treatment.

[5] = system: rat; assay: in vivo; conditions: 10 animals per dose
Procedure: as §2

[6] = in vivo; conditions: mouse, po
[7] = system: bromobenzene poisoning; assay: Protective activity in the bromobenzene poisoning; format: in vivo, male rats (Sprague-Dawley); conditions: 300 mg/kg oral, vs investigational compound
Procedure: Fifty male rats (Sprague-Dawley, 180-200 g bodyweight) were used for the investigation, subdivided into 5 groups, each consisting of 10 animals, given orally the following compounds
(1) 5 percent gum arabic in tap water
(2) 5 percent gum arabic in tap water
(3) 2-(2-thenoylthio)-propionylglycine--200 mg/kg
(4) 2-(2-thenoylthio)-propionylglycine--300 mg/kg
Seven days later, the animals of the groups 2-3-4-[…] were given bromobenzene subcutaneously (150 mg/rat) while the remaining group (control) was given an equivalent volume of saline. Still seven days later, 5 of the animals of each group were given Nembutal (25 mg/kg/intraperitoneally), and the sleeping time was calculated.
The remaining 5 animals of each group were given bromophthalein at the dose of 50 mg intravenously; thirty minutes later, the animals were sacrificed and both the present bromophthalein and SGPT (serum glutamic pyruvic transaminase) were established in the blood.

[8] = system: mouse; conditions: oral, 10 animals per dose
[9] = Stability test: melting point before and after heating; format: physicochemical
Procedure: as §1
The melting point was established in a capillary tube, under identical conditions, on the samples No. 5 after heating for 8 hours in the previously specified conditions, and on the samples No. 10 after heating and evaporation to dryness as previously specified.

[10] = background; cited from earlier work
[11] = Solubility and organoleptic properties; format: physicochemical; conditions: 100 milligrams with 1 ml of distilled water
[12] = physchem
Procedure: as §1
(§3) In the case of the wet-treated samples, the final weight was only established on the samples No. 10 brought to dryness at 60° C. under vacuum after an 8-hour heating.

[13] = system: mercuric chloride; assay: In vivo protective action against mercurial compounds; design: species or system male mice (Swiss strain); conditions: 300 mg/kg ip, mercuric chloride 20 mg/kg ip, mice, 24 hours
Procedure: Forty male mice (Swiss strain, 22 grams mean bodyweight) were used for the investigation, subdivided into 4 groups treated as follows:
(1) mercuric chloride, 20 mg/kg/intraperitoneally;
(4) mercuric chloride 20 mg/kg/intraperitoneally+2-thiopropionylglycine 300 mg/kg/intraperitoneally.
Deaths occurred were recorded hourly in the first 5 hours, and thereafter after 24 hours.

[14] = system: mouse; conditions: intravenous, 10 animals per dose
[15] = Stability test: physical properties and weight variations on heating; format: physicochemical
Procedure: as §1
Still in Table 5, the sample from 1 to 5 refer, for each of the two compounds, to the dry substance while the samples from 6 to 10 refer to the solution or to the aqueous suspension obtained as above specified.
as §3

[16] = system: elderly patients; format: in vivo, man
Procedure: The drug was assessed, with respect to its mucolytic action, on thirty elderly patients ([…], maximal 87, mean age 72). […] The improvement was assessed on the basis of the following parameters:
decrease of the daily quantity of sputum;
decrease of the viscosity of the sputum;
increase of the Tiffeneau's index;
improved value of the erythrocyte sedimentation rate.
A group of twenty patients, in the same mean age, was given for control purposes a known drug such as N-acetylcysteine.

[17] = sample 1, dry, 1 hour 30 minutes
[18] = sample 3, dry, 5 hours 15 minutes
[19] = sample 5, dry, 8 hours, listed as 2-thiopropionylglycine
[20] = sample 10, wet, 8 hours, brought to dryness

CC(S)C(=O)NCC(=O)O (centres unmarked) [compound (II), 2-mercaptopropionylglycine, reference compound]
mortality ([1]; 500 mg/kg): 0% | mortality ([1]; 750 mg/kg): 0% | mortality ([1]; 1000 mg/kg): 10% | liver weight increase consequent to CCl4 [2]: can prevent the liver weight increase | Energy of activation of the decomposition reaction ([3]; dry): 15.66 kcal/mol | Energy of activation of the decomposition reaction ([3]; wet): 11.54 kcal/mol | LD50 at 168 h ([4]; im): 1630 mg/kg | mortality at 168 h ([4]; im, 1500 mg/kg): 20% | mortality at 168 h ([4]; im, 1750 mg/kg): 60% | mortality at 168 h ([4]; im, 2000 mg/kg): 100% | mortality at 168 h ([4]; po, 1500 mg/kg): 0% | mortality at 168 h ([4]; po, 2000 mg/kg): 0% | mortality at 168 h ([4]; po, 2500 mg/kg): 20% | No. Animals Dead ([5]; intramuscular, 1500 mg/kg): 2 | No. Animals Dead ([5]; intramuscular, 1750 mg/kg): 6 | No. Animals Dead ([5]; intramuscular, 2000 mg/kg): 10 | No. Animals Dead ([5]; oral, 1500 mg/kg): 0 | No. Animals Dead ([5]; oral, 2000 mg/kg): 0 | No. Animals Dead ([5]; oral, 2500 mg/kg (highest dose)): 2 | mortality ([6]; 1500 mg/kg): 0% | mortality ([6]; 2000 mg/kg): 10% | mortality ([6]; 2500 mg/kg): 20% | liver protective effect [7]: lower than that induced by the investigational compound, and statistically not significant | No. Animals Dead ([8]; 1500 mg/kg): 0 | No. Animals Dead ([8]; 2000 mg/kg): 1 | No. Animals Dead ([8]; 2500 mg/kg (highest dose)): 2 | melting point variation ([9]; after heating): marked decrease of the melting point in the case of the wet sample | Final m.p. wet conditions (Sample 10) ([9]; after heating 8 hours wet and evaporation to dryness): 86-88 °C | Final m.p. dry conditions (Sample 5) ([9]; after heating for 8 hours, dry): 92-94 °C | Initial m.p. ([9]; before heating): 93-95 °C | stability (known) [10]: low stability | appearance in water [11]: clear solution | Content [12]: 101.43% | E at 232 nm ([12]; as such): 0.329 | remaining at 1.5 h ([12]; dry): 101% | remaining at 3 h ([12]; dry): 101% | remaining at 5.25 h ([12]; dry): 99.5% | remaining at 8 h ([12]; dry): 98.4% | E at 232 nm ([12]; sample 1, dry): 0.325 | E at 232 nm ([12]; sample 2, dry): 0.324 | E at 232 nm ([12]; sample 3, dry): 0.325 | E at 232 nm ([12]; sample 4, dry): 0.324 | E at 232 nm ([12]; sample 6, wet): 0.333 | E at 232 nm ([12]; sample 7, wet): 0.325 | E at 232 nm ([12]; sample 8, wet): 0.320 | E at 232 nm ([12]; sample 9, wet): 0.300 | deaths [13]: 10% | No. Animals Dead ([14]; 500 mg/kg): 0 | No. Animals Dead ([14]; 750 mg/kg): 0 | No. Animals Dead ([14]; 1000 mg/kg): 1 | Color [15, 17]: white | Weight Fin. [15, 17]: 98.3 mg | Weight Variations [15, 17]: -5.4% | Color ([15]; sample 2, dry, 3 hours): white | Weight Fin. ([15]; sample 2, dry, 3 hours, listed as 2-thiopropionylglycine): 93.0 mg | Color [15, 18]: white | Weight Fin. [15, 18]: 94.8 mg | Weight Variations [15, 18]: -5.67% | Color ([15]; sample 4, dry, 8 hours): white | Weight Fin. ([15]; sample 4, dry, 8 hours): 95.7 mg | Weight Variations ([15]; sample 4, dry, 8 hours): -5.53% | Weight Fin. [15, 19]: 198.9 mg | Weight Variations [15, 19]: -2.83% | Color ([15]; sample 6, wet): colorless | Color ([15]; sample 7, wet): colorless | Color ([15]; sample 8, wet): colorless | Color ([15]; sample 9, wet): yellowish | Weight Fin. [15, 20]: 193.8 mg | Weight Variations [15, 20]: -3.1%

CC(=O)N[C@@H](CS)C(=O)O [N-acetylcysteine, reference compound]
fit of cough on aerosol administration ([16]; in vivo): frequently happens | decrease of the sputum, comparison of (I) and N-acetylcysteine ([16]; twenty control patients on N-acetylcysteine): overall comparable with those provided by the compound (I)
